{"source": "patent US20040063662A1", "about": "“Selenophene anti-tumor agents” (priority 1996, published 2004)", "key": {"[1]": {"tested_on": "HL-60(TB)", "experiment": "NCI human tumor cell panel: HL-60(TB) (Leukemia)", "format": "cell-based"}, "[2]": {"tested_on": "SR", "experiment": "NCI human tumor cell panel: SR (Leukemia)", "format": "cell-based"}, "[3]": {"tested_on": "EKVX", "experiment": "NCI human tumor cell panel: EKVX (Non-Small Cell Lung Cancer)", "format": "cell-based"}, "[4]": {"tested_on": "HOP-62", "experiment": "NCI human tumor cell panel: HOP-62 (Non-Small Cell Lung Cancer)", "format": "cell-based"}, "[5]": {"tested_on": "NCI-H226", "experiment": "NCI human tumor cell panel: NCI-H226 (Non-Small Cell Lung Cancer)", "format": "cell-based"}, "[6]": {"tested_on": "NCI-H23", "experiment": "NCI human tumor cell panel: NCI-H23 (Non-Small Cell Lung Cancer)", "format": "cell-based"}, "[7]": {"tested_on": "NCI-H322M", "experiment": "cells", "format": "cell-based", "settings": "Homo sapiens"}, "[8]": {"tested_on": "HCT-15", "experiment": "NCI human tumor cell panel: HCT-15 (Colon Cancer)", "format": "cell-based"}, "[9]": {"tested_on": "HT29", "experiment": "NCI human tumor cell panel: HT29 (Colon Cancer)", "format": "cell-based"}, "[10]": {"tested_on": "KM12", "experiment": "NCI human tumor cell panel: KM12 (Colon Cancer)", "format": "cell-based"}, "[11]": {"tested_on": "SW-620", "experiment": "NCI human tumor cell panel: SW-620 (Colon Cancer)", "format": "cell-based"}, "[12]": {"tested_on": "SF-268", "experiment": "NCI human tumor cell panel: SF-268 (CNS Cancer)", "format": "cell-based"}, "[13]": {"tested_on": "SF-539", "experiment": "NCI human tumor cell panel: SF-539 (CNS Cancer)", "format": "cell-based"}, "[14]": {"tested_on": "MALME-3M", "experiment": "NCI human tumor cell panel: MALME-3M (Melanoma)", "format": "cell-based", "settings": "Malme-3M"}, "[15]": {"tested_on": "SK-MEL-2", "experiment": "NCI human tumor cell panel: SK-MEL-2 (Melanoma)", "format": "cell-based"}, "[16]": {"tested_on": "SK-MEL-28", "experiment": "NCI human tumor cell panel: SK-MEL-28 (Melanoma)", "format": "cell-based"}, "[17]": {"tested_on": "UACC-62", "experiment": "NCI human tumor cell panel: UACC-62 (Melanoma)", "format": "cell-based"}, "[18]": {"tested_on": "OVCAR-4", "experiment": "NCI human tumor cell panel: OVCAR-4 (Ovarian Cancer)", "format": "cell-based", "settings": "OVCAR-4, read-out: Log10 GI50 (converted)"}, "[19]": {"tested_on": "OVCAR-5", "experiment": "NCI human tumor cell panel: OVCAR-5 (Ovarian Cancer)", "format": "cell-based"}, "[20]": {"tested_on": "A498", "experiment": "NCI human tumor cell panel: A498 (Renal Cancer)", "format": "cell-based"}, "[21]": {"tested_on": "CAKI-1", "experiment": "NCI human tumor cell panel: CAKI-1 (Renal Cancer)", "format": "cell-based"}, "[22]": {"tested_on": "RXF-393", "experiment": "NCI human tumor cell panel: RXF-393 (Renal Cancer)", "format": "cell-based"}, "[23]": {"tested_on": "SN12C", "experiment": "NCI human tumor cell panel: SN12C (Renal Cancer)", "format": "cell-based"}, "[24]": {"tested_on": "MDA-MB-231/ATCC", "experiment": "NCI human tumor cell panel: MDA-MB-231/ATCC (Breast Cancer)", "format": "cell-based", "settings": "Homo sapiens, MDA-MB-231, MDA-MB-231/ATCC"}, "[25]": {"tested_on": "NCI-H522", "experiment": "NCI human tumor cell panel: NCI-H522 (Non-Small Cell Lung Cancer)"}, "[26]": {"tested_on": "panel of sixty different human tumor cell lines", "experiment": "NCI human tumor cell panel: whole panel (mean graph summary)", "settings": "for CC50: Homo sapiens"}, "[27]": {"settings": "read-out: Log10 GI50 (converted)"}, "[28]": {"settings": "read-out: Log10 TGI (converted)"}}, "note": "Where two headings read alike, the source gives them in different places.", "data": [{"smiles": "OCc1ccc(-c2ccc(-c3ccc(CO)[se]3)s2)[se]1", "note": "[compound 676632]", "values": [{"measurement": "GI50", "setting": "[1]; [27]", "value": "> 100", "unit": "µM"}, {"measurement": "IC (TGI)", "setting": "[1]; read-out: Log10 TGI", "value": "> 100", "unit": "µM"}, {"measurement": "GI50", "setting": "[2]; [27]", "value": "> 100", "unit": "µM"}, {"measurement": "IC (TGI)", "setting": "[2]; [28]", "value": "> 100", "unit": "µM"}, {"measurement": "GI50", "setting": "[3]; [27]", "value": 50.1, "unit": "µM"}, {"measurement": "IC (TGI)", "setting": "[3]; [28]", "value": "> 100", "unit": "µM"}, {"measurement": "GI50", "setting": "[4]; HOP-62, read-out: Log10 GI50 (converted)", "value": 0.0759, "unit": "µM"}, {"measurement": "IC (TGI)", "setting": "[4]; HOP-62, read-out: Log10 TGI (converted)", "value": "> 100", "unit": "µM"}, {"measurement": "GI50", "setting": "[5]; NCI-H226, read-out: Log10 GI50 (converted)", "value": 0.0195, "unit": "µM"}, {"measurement": "IC (TGI)", "setting": "[5]; NCI-H226, read-out: Log10 TGI (converted)", "value": 0.0537, "unit": "µM"}, {"measurement": "GI50", "setting": "[6]; NCI-H23, read-out: Log10 GI50 (converted)", "value": "> 100", "unit": "µM"}, {"measurement": "IC (TGI)", "setting": "[6]; NCI-H23, read-out: Log10 TGI (converted)", "value": "> 100", "unit": "µM"}, {"measurement": "GI50", "setting": "[7]; [27]", "value": "> 100", "unit": "µM"}, {"measurement": "IC (TGI)", "setting": "[7]; [28]", "value": "> 100", "unit": "µM"}, {"measurement": "GI50", "setting": "[8]; HCT-15, read-out: Log10 GI50 (converted)", "value": 0.0447, "unit": "µM"}, {"measurement": "IC (TGI)", "setting": "[8]; HCT-15, read-out: Log10 TGI (converted)", "value": "> 100", "unit": "µM"}, {"measurement": "GI50", "setting": "[9]; HT-29, HT29, read-out: Log10 GI50 (converted)", "value": "> 100", "unit": "µM"}, {"measurement": "IC (TGI)", "setting": "[9]; HT-29, HT29, read-out: Log10 TGI (converted)", "value": "> 100", "unit": "µM"}, {"measurement": "GI50", "setting": "[10]; KM12, read-out: Log10 GI50 (converted)", "value": 0.537, "unit": "µM"}, {"measurement": "IC (TGI)", "setting": "[10]; KM12, read-out: Log10 TGI (converted)", "value": "> 100", "unit": "µM"}, {"measurement": "GI50", "setting": "[11]; SW-620, read-out: Log10 GI50 (converted)", "value": "> 100", "unit": "µM"}, {"measurement": "IC (TGI)", "setting": "[11]; SW-620, read-out: Log10 TGI (converted)", "value": "> 100", "unit": "µM"}, {"measurement": "GI50", "setting": "[12]; SF-268, read-out: Log10 GI50 (converted)", "value": "> 100", "unit": "µM"}, {"measurement": "IC (TGI)", "setting": "[12]; SF-268, read-out: Log10 TGI (converted)", "value": "> 100", "unit": "µM"}, {"measurement": "GI50", "setting": "[13]; SF-539, read-out: Log10 GI50 (converted)", "value": "> 100", "unit": "µM"}, {"measurement": "IC (TGI)", "setting": "[13]; SF-539, read-out: Log10 TGI (converted)", "value": "> 100", "unit": "µM"}, {"measurement": "GI50", "setting": "[14]; [27]", "value": "> 100", "unit": "µM"}, {"measurement": "IC (TGI)", "setting": "[14]; [28]", "value": "> 100", "unit": "µM"}, {"measurement": "GI50", "setting": "[15]; SK-MEL-2, read-out: Log10 GI50 (converted)", "value": "> 100", "unit": "µM"}, {"measurement": "IC (TGI)", "setting": "[15]; SK-MEL-2, read-out: Log10 TGI (converted)", "value": "> 100", "unit": "µM"}, {"measurement": "GI50", "setting": "[16]; SK-MEL-28, read-out: Log10 GI50 (converted)", "value": "> 100", "unit": "µM"}, {"measurement": "IC (TGI)", "setting": "[16]; SK-MEL-28, read-out: Log10 TGI (converted)", "value": "> 100", "unit": "µM"}, {"measurement": "GI50", "setting": "[17]; UACC-62, read-out: Log10 GI50 (converted)", "value": 0.0224, "unit": "µM"}, {"measurement": "IC (TGI)", "setting": "[17]; UACC-62, read-out: Log10 TGI (converted)", "value": 0.0562, "unit": "µM"}, {"measurement": "GI50", "setting": "[18]", "value": 0.135, "unit": "µM"}, {"measurement": "GI50", "setting": "[19]; OVCAR-5, read-out: Log10 GI50 (converted)", "value": 0.0132, "unit": "µM"}, {"measurement": "IC (TGI)", "setting": "[19]; OVCAR-5, read-out: Log10 TGI (converted)", "value": 0.0776, "unit": "µM"}, {"measurement": "GI50", "setting": "[20]; A498, read-out: Log10 GI50 (converted)", "value": 0.0186, "unit": "µM"}, {"measurement": "IC (TGI)", "setting": "[20]; A498, read-out: Log10 TGI (converted)", "value": 0.0427, "unit": "µM"}, {"measurement": "GI50", "setting": "[21]; CAKI-1, read-out: Log10 GI50 (converted)", "value": 0.0126, "unit": "µM"}, {"measurement": "IC (TGI)", "setting": "[21]; CAKI-1, read-out: Log10 TGI (converted)", "value": 0.123, "unit": "µM"}, {"measurement": "GI50", "setting": "[22]; RXF-393, read-out: Log10 GI50 (converted)", "value": "> 100", "unit": "µM"}, {"measurement": "IC (TGI)", "setting": "[22]; RXF-393, read-out: Log10 TGI (converted)", "value": "> 100", "unit": "µM"}, {"measurement": "GI50", "setting": "[23]; [27]", "value": "> 100", "unit": "µM"}, {"measurement": "IC (TGI)", "setting": "[23]; [28]", "value": "> 100", "unit": "µM"}, {"measurement": "GI50", "setting": "[24]; [27]", "value": "> 100", "unit": "µM"}, {"measurement": "IC (TGI)", "setting": "[24]; [28]", "value": "> 100", "unit": "µM"}, {"measurement": "GI50", "setting": "[25]; NCI-H522, read-out: Log10 GI50 (converted)", "value": "> 100", "unit": "µM"}, {"measurement": "IC (TGI)", "setting": "[25]; NCI-H522, read-out: Log10 TGI", "value": "> 100", "unit": "µM"}, {"measurement": "CC50", "setting": "[26]; read-out: Log10 LC50, MG_MID, mean over the panel (converted)", "value": 69.2, "unit": "µM"}, {"measurement": "CC50", "setting": "[26]; read-out: Log10 LC50, row head (cell line) not given (converted)", "value": "> 100", "unit": "µM"}, {"measurement": "Log10 TGI", "setting": "[26]; listed as head (cell line) not given", "value": ">−4.00"}, {"measurement": "Log10 GI50, MG_MID", "setting": "[26]; mean over the panel", "value": "−5.16"}, {"measurement": "Log10 TGI, MG_MID", "setting": "[26]; mean over the panel", "value": "−4.48"}, {"measurement": "Log10 TGI, Delta", "setting": "[26]; whole panel", "value": 2.89}, {"measurement": "Log10 TGI, Range", "setting": "[26]; whole panel", "value": 3.37}]}]}
